Columns and labels:
Type in all cases: in vivo
[1] = test system: POLCO (Polygonum convolvulus); test: greenhouse post-emergence herbicidal test
Excerpt: (§1) The culture containers used were plastic flowerpots containing loamy sand with approximately 3.0% of humus as the substrate. The seeds of the test plants were sown separately for each species.
(§2) For the post-emergence treatment, the test plants were first grown to a height of 3 to 15 cm, depending on the plant habit, and only then treated with the active ingredients which had been suspended or emulsified in water. For this purpose, the test plants were either sown directly and grown in the same containers, or they were first grown separately as seedlings and transplanted into the test containers a few days prior to treatment.
(§3) Depending on the species, the plants were kept at 10-25° C. or 20-35° C., respectively.
(§4) The test period extended over 2 to 4 weeks. During this time, the plants were tended, and their response to the individual treatments was evaluated.
(§5) Evaluation was carried out using a scale from 0 to 100. 100 means no emergence of the plants, or complete destruction of at least the aerial moieties, and 0 means no damage, or normal course of growth. A moderate herbicidal activity is given at values of at least 60, a good herbicidal activity is given at values of at least 70, and a very good herbicidal activity is given at values of at least 85.
(§6) The plants used in the greenhouse experiments were of the following species: […]

[2] = test system: AMARE (Amaranthus retroflexus); test: greenhouse post-emergence herbicidal test
Excerpt: as §1, §2, §3, §4, §5, §6

[3] = test system: ABUTH (Abutilon theophrasti); test: greenhouse post-emergence herbicidal test
Excerpt: as §1, §2, §3, §4, §5, §6

[4] = test system: CHEAL (Chenopodium album); test: greenhouse post-emergence herbicidal test
Excerpt: as §1, §2, §3, §4, §5, §6

[5] = test system: CAPBP (Capsella bursa-pastoris); test: greenhouse pre-emergence herbicidal test; conditions: CAPBP
Excerpt: as §1
(§7) For the pre-emergence treatment, the active ingredients, which had been suspended or emulsified in water, were applied directly after sowing by means of finely distributing nozzles. The containers were irrigated gently to promote germination and growth and subsequently covered with transparent plastic hoods until the plants had rooted. This cover caused uniform germination of the test plants, unless this had been impaired by the active ingredients.
as §3, §4, §5, §6

[6] = test system: VIOAR (Viola arvensis); test: greenhouse pre-emergence herbicidal test
Excerpt: as §1, §7, §3, §4, §5, §6

[7] = test system: SETVI (Setaria viridis); test: greenhouse pre-emergence herbicidal test
Excerpt: as §1, §7, §3, §4, §5, §6

[8] = test system: STEME (Stellaria media); test: greenhouse pre-emergence herbicidal test
Excerpt: as §1, §7, §3, §4, §5, §6

[9] = test system: ECHCG (Echinocloa crus-galli); test: greenhouse pre-emergence herbicidal test; conditions: 125 g/ha
Excerpt: as §1, §7, §3, §4, §5, §6

`CC(C)c1nc(N)nc(Nc2c(F)c(F)cc(F)c2F)n1` [Example 6] was tested, and the herbicidal activity ([1]; 0.031 kg/ha) was “good (a good herbicidal activity is given at values of at least 70)” and the herbicidal activity ([2]; 0.031 kg/ha) was “very good (a very good herbicidal activity is given at values of at least 85)”.
In the case of `CC(F)(F)c1nc(N)nc(Nc2c(F)c(F)cc(F)c2F)n1` [Example 8], the herbicidal activity ([3]; 0.062 kg/ha) is reported as “very good (a very good herbicidal activity is given at values of at least 85)” and the herbicidal activity ([4]; 0.062 kg/ha) is reported as “very good (a very good herbicidal activity is given at values of at least 85)”.
In the case of `CC(F)c1nc(N)nc(Nc2c(F)cccc2F)n1` (stereo not shown) [Example 12], the herbicidal activity ([5]; 0.125 kg/ha) is reported as “very good (a very good herbicidal activity is given at values of at least 85)” and the herbicidal activity ([6]; 0.125 kg/ha) is reported as “very good (a very good herbicidal activity is given at values of at least 85)”.
In the case of `CC(F)c1nc(N)nc(Nc2c(F)cc(F)cc2F)n1` (stereo not shown) [Example 15], the herbicidal activity ([7]; 0.0625 kg/ha) is reported as “moderate (A moderate herbicidal activity is given at values of at least 60)”.
For `CC(F)c1nc(N)nc(Nc2c(F)c(F)cc(F)c2F)n1` (stereo not shown) [Example 17], the herbicidal activity ([1]; 0.125 kg/ha) was “very good (a very good herbicidal activity is given at values of at least 85)” and the herbicidal activity ([3]; 0.125 kg/ha) was “very good (a very good herbicidal activity is given at values of at least 85)”.
With `CC(C)(F)c1nc(N)nc(Nc2ccc(F)c(F)c2F)n1` [Example 26] the herbicidal activity ([5]; 0.125 kg/ha) was “good (a good herbicidal activity is given at values of at least 70)” and the herbicidal activity ([6]; 0.125 kg/ha) was “very good (a very good herbicidal activity is given at values of at least 85)”.
With `CC(C)(F)c1nc(N)nc(Nc2cc(F)c(F)c(F)c2)n1` [Example 29] the herbicidal activity ([6]; 0.125 kg/ha) was “moderate (A moderate herbicidal activity is given at values of at least 60)”.
For `CC(C)(F)c1nc(N)nc(Nc2c(F)cccc2C#N)n1` [Example 38], the herbicidal activity ([2]; 0.125 kg/ha) was “very good (a very good herbicidal activity is given at values of at least 85)” and the herbicidal activity ([4]; 0.125 kg/ha) was “very good (a very good herbicidal activity is given at values of at least 85)”.
With `Cc1ccc(F)c(Nc2nc(N)nc(C(C)(C)F)n2)c1F` [Example 40] the herbicidal activity ([2]; 0.031 kg/ha) was “very good (a very good herbicidal activity is given at values of at least 85)” and the herbicidal activity ([4]; 0.031 kg/ha) was “very good (a very good herbicidal activity is given at values of at least 85)”.
`COc1ccc(F)c(F)c1Nc1nc(N)nc(C(C)(C)F)n1` [Example 61] was tested, and the herbicidal activity ([1]; 0.062 kg/ha) was “very good (a very good herbicidal activity is given at values of at least 85)” and the herbicidal activity ([2]; 0.062 kg/ha) was “very good (a very good herbicidal activity is given at values of at least 85)”.
In the case of `CCC(C)c1nc(N)nc(Nc2c(F)c(F)c(F)c(F)c2F)n1` (stereo not shown) [Example 62], the herbicidal activity ([8]; 125 g/ha) is reported as “very good (a very good herbicidal activity is given at values of at least 85)”, the herbicidal activity ([5]; 125 g/ha) is reported as “very good (a very good herbicidal activity is given at values of at least 85)” and the herbicidal activity ([7]; 125 g/ha) is reported as “very good (a very good herbicidal activity is given at values of at least 85)”.
In the case of `CC(C)(F)c1nc(N)nc(Nc2c(F)cc(C#N)cc2F)n1` [Example 71], the herbicidal activity ([1]; 125 g/ha) is reported as “good (a good herbicidal activity is given at values of at least 70)” and the herbicidal activity ([4]; 125 g/ha) is reported as “very good (a very good herbicidal activity is given at values of at least 85)”.
In the case of `Nc1nc(CCC(F)(F)F)nc(Nc2c(F)c(F)c(F)c(F)c2F)n1` [Example 73], the herbicidal activity ([8]; 250 g/ha) is reported as “very good (a very good herbicidal activity is given at values of at least 85)”, the herbicidal activity ([5]; 250 g/ha) is reported as “very good (a very good herbicidal activity is given at values of at least 85)” and the herbicidal activity ([7]; 250 g/ha) is reported as “very good (a very good herbicidal activity is given at values of at least 85)”.
With `CC(C)(C)c1nc(N)nc(Nc2c(F)ccc(Cl)c2F)n1` [Example 81] the herbicidal activity ([8]; 125 g/ha) was “very good (a very good herbicidal activity is given at values of at least 85)”, the herbicidal activity ([5]; 125 g/ha) was “very good (a very good herbicidal activity is given at values of at least 85)” and the herbicidal activity ([6]; 125 g/ha) was “very good (a very good herbicidal activity is given at values of at least 85)”.
In the case of `CC(C)(Cl)c1nc(N)nc(Nc2c(F)ccc(Cl)c2F)n1` [Example 108], the herbicidal activity ([8]; 250 g/ha) is reported as “very good (a very good herbicidal activity is given at values of at least 85)”, the herbicidal activity ([5]; 250 g/ha) is reported as “very good (a very good herbicidal activity is given at values of at least 85)” and the herbicidal activity ([6]; 250 g/ha) is reported as “very good (a very good herbicidal activity is given at values of at least 85)”.
For `CC(C)(Cl)c1nc(N)nc(Nc2c(F)c(F)cc(F)c2F)n1` [Example 111], the herbicidal activity ([5]; 125 g/ha) was “very good (a very good herbicidal activity is given at values of at least 85)”, the herbicidal activity [9] was “very good (a very good herbicidal activity is given at values of at least 85)” and the herbicidal activity ([7]; 125 g/ha) was “very good (a very good herbicidal activity is given at values of at least 85)”.
In the case of `Nc1nc(Nc2c(F)ccc(F)c2F)nc(C(F)(F)F)n1` [Example 127], the herbicidal activity ([1]; 1000 g/ha) is reported as “good (a good herbicidal activity is given at values of at least 70)”, the herbicidal activity ([2]; 1000 g/ha) is reported as “very good (a very good herbicidal activity is given at values of at least 85)” and the herbicidal activity ([4]; 1000 g/ha) is reported as “very good (a very good herbicidal activity is given at values of at least 85)”.
`Nc1nc(Nc2c(F)c(F)cc(F)c2F)nc(C(F)(F)F)n1` [Example 132] was tested, and the herbicidal activity ([1]; 500 g/ha) was “very good (a very good herbicidal activity is given at values of at least 85)”, the herbicidal activity ([2]; 500 g/ha) was “very good (a very good herbicidal activity is given at values of at least 85)” and the herbicidal activity ([4]; 500 g/ha) was “very good (a very good herbicidal activity is given at values of at least 85)”.
In the case of `CC(F)(F)c1nc(N)nc(Nc2c(F)cc(F)cc2F)n1` [Example 138], the herbicidal activity ([8]; 125 g/ha) is reported as “very good (a very good herbicidal activity is given at values of at least 85)”, the herbicidal activity ([5]; 125 g/ha) is reported as “very good (a very good herbicidal activity is given at values of at least 85)” and the herbicidal activity ([6]; 125 g/ha) is reported as “very good (a very good herbicidal activity is given at values of at least 85)”.
For `Nc1nc(Nc2c(F)cc(F)cc2F)nc(C2CC2)n1` [Example 143], the herbicidal activity ([1]; 500 g/ha) was “good (a good herbicidal activity is given at values of at least 70)”, the herbicidal activity ([2]; 500 g/ha) was “very good (a very good herbicidal activity is given at values of at least 85)” and the herbicidal activity ([4]; 500 g/ha) was “very good (a very good herbicidal activity is given at values of at least 85)”.
In the case of `Nc1nc(Nc2c(F)c(F)c(F)c(F)c2F)nc(C(F)(F)Cl)n1` [Example 146], the herbicidal activity ([1]; 500 g/ha) is reported as “very good (a very good herbicidal activity is given at values of at least 85)”, the herbicidal activity ([2]; 500 g/ha) is reported as “very good (a very good herbicidal activity is given at values of at least 85)” and the herbicidal activity ([4]; 500 g/ha) is reported as “very good (a very good herbicidal activity is given at values of at least 85)”.
With `Nc1nc(Nc2c(F)c(F)c(Br)c(F)c2F)nc(C2CCCCC2)n1` [Example 209] the herbicidal activity ([8]; 250 g/ha) was “very good (a very good herbicidal activity is given at values of at least 85)”, the herbicidal activity ([5]; 250 g/ha) was “good (a good herbicidal activity is given at values of at least 70)” and the herbicidal activity ([6]; 250 g/ha) was “good (a good herbicidal activity is given at values of at least 70)”.
For `Nc1nc(Nc2c(F)c(F)c(Br)c(F)c2F)nc(C2CCCC2)n1` [Example 210], the herbicidal activity ([8]; 250 g/ha) was “very good (a very good herbicidal activity is given at values of at least 85)”, the herbicidal activity ([5]; 250 g/ha) was “very good (a very good herbicidal activity is given at values of at least 85)” and the herbicidal activity ([6]; 250 g/ha) was “very good (a very good herbicidal activity is given at values of at least 85)”.
`Nc1nc(C2CC2)nc(N(C(=O)C2CC2)c2c(F)c(F)cc(F)c2F)n1` [Example 285] was tested, and the herbicidal activity ([2]; 62 g/ha) was “very good (a very good herbicidal activity is given at values of at least 85)” and the herbicidal activity ([4]; 62 g/ha) was “good (a good herbicidal activity is given at values of at least 70)”.

Reference: US9549558B2, “Herbicidal azines” (BASF SE, priority 2012, dated 2017)
